Assay results reported in ChEMBL document CHEMBL1201862, “PubChem BioAssay data set” (2004).
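In this assay, cells in 96-well plates receive the compound at five concentrations for 48 hours. Endpoints are linearly interpolated between the surrounding concentrations. Abbreviation: GI50, concentration required for 50% inhibition of growth.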 The source made the active and inactive calls. No stated cut-off is given here; in the data, active = GI50 up to about 1.1 µM and inactive = higher.

Columns and labels:
Test in all cases: NCI anticancer screen, dose series, 48 h
786-0 = tested on: 786-0
A498 = tested on: A498
A549 = tested on: A549
ACHN = tested on: ACHN
BT-549 = tested on: BT-549
CAKI-1 = tested on: CAKI-1
CCRF-CEM = tested on: CCRF-CEM
COLO 205 = tested on: COLO 205
DU-145 = tested on: DU-145
EKVX = tested on: EKVX
HCC 2998 = tested on: HCC 2998
HCT-116 = tested on: HCT-116
HCT-15 = tested on: HCT-15
HL-60 = tested on: HL-60
HOP-62 = tested on: HOP-62
HT-29 = tested on: HT-29
IGROV-1 = tested on: IGROV-1
K562 = tested on: K562
KM12 = tested on: KM12
LOX IMVI = tested on: LOX IMVI
M14 = tested on: M14
MCF7 = tested on: MCF7
MDA-MB-231 = tested on: MDA-MB-231
MDA-MB-435 = tested on: MDA-MB-435
MDA-N = tested on: MDA-N
MOLT-4 = tested on: MOLT-4
Malme-3M = tested on: Malme-3M
NCI-H23 = tested on: NCI-H23
NCI-H460 = tested on: NCI-H460
NCI-H522 = tested on: NCI-H522
NCI/ADR-RES = tested on: NCI/ADR-RES
OVCAR-3 = tested on: OVCAR-3
OVCAR-4 = tested on: OVCAR-4
OVCAR-5 = tested on: OVCAR-5
OVCAR-8 = tested on: OVCAR-8
PC-3 = tested on: PC-3
RPMI-8226 = tested on: RPMI-8226
RXF 393 = tested on: RXF 393
SF-268 = tested on: SF-268
SF-295 = tested on: SF-295
SF-539 = tested on: SF-539
SK-MEL-28 = tested on: SK-MEL-28
SK-MEL-5 = tested on: SK-MEL-5
SK-OV-3 = tested on: SK-OV-3
SN12C = tested on: SN12C
SNB-19 = tested on: SNB-19
SNB-75 = tested on: SNB-75
SR = tested on: SR
SW-620 = tested on: SW-620
T47D = tested on: T47D
TK-10 = tested on: TK-10
U-251 = tested on: U-251
UACC-257 = tested on: UACC-257
UACC-62 = tested on: UACC-62
UO-31 = tested on: UO-31
Hs-578T = tested on: Hs-578T
NCI-H226 = tested on: NCI-H226

CC1(C)[C@@H]2C[C@H]1C(Cc1ccccc1C[C@H]1c3cc(-c4ccccn4)ncc3[C@H]3C[C@@H]1C3(C)C)c1cc(-c3ccccn3)ncc12 (stereo not given in full)
GI50 (786-0): 0.253 µM (active)
GI50 (A498): 0.673 µM (active)
GI50 (A549): 0.371 µM (active)
GI50 (ACHN): 0.204 µM (active)
GI50 (BT-549): 0.716 µM (active)
GI50 (CAKI-1): 0.568 µM (active)
GI50 (CCRF-CEM): 0.223 µM (active)
GI50 (COLO 205): 0.399 µM (active)
GI50 (DU-145): 0.375 µM (active)
GI50 (EKVX): 0.461 µM (active)
GI50 (HCC 2998): 0.982 µM (active)
GI50 (HCT-116): 0.342 µM (active)
GI50 (HCT-15): 0.41 µM
GI50 (HL-60): 0.232 µM (active)
GI50 (HOP-62): 0.147 µM (active)
GI50 (HT-29): 0.371 µM (active)
GI50 (IGROV-1): 0.274 µM (active)
GI50 (K562): 0.356 µM (active)
GI50 (KM12): 0.389 µM (active)
GI50 (LOX IMVI): 0.361 µM (active)
GI50 (M14): 0.28 µM (active)
GI50 (MCF7): 0.362 µM (active)
GI50 (MDA-MB-231): 0.587 µM (active)
GI50 (MDA-MB-435): 0.416 µM (active)
GI50 (MDA-N): 0.578 µM (active)
GI50 (MOLT-4): 0.236 µM (active)
GI50 (Malme-3M): 0.678 µM (active)
GI50 (NCI-H23): 0.726 µM (active)
GI50 (NCI-H460): 0.337 µM (active)
GI50 (NCI-H522): 0.448 µM (active)
GI50 (NCI/ADR-RES): 1.91 µM (inactive)
GI50 (OVCAR-3): 0.387 µM (active)
GI50 (OVCAR-4): 0.716 µM (active)
GI50 (OVCAR-5): 0.791 µM (active)
GI50 (OVCAR-8): 0.378 µM (active)
GI50 (PC-3): 0.47 µM (active)
GI50 (RPMI-8226): 0.348 µM (active)
GI50 (RXF 393): 0.714 µM (active)
GI50 (SF-268): 0.292 µM (active)
GI50 (SF-295): 0.408 µM (active)
GI50 (SF-539): 0.577 µM (active)
GI50 (SK-MEL-28): 0.527 µM (active)
GI50 (SK-MEL-5): 0.0834 µM (active)
GI50 (SK-OV-3): 0.518 µM (active)
GI50 (SN12C): 0.479 µM (active)
GI50 (SNB-19): 0.611 µM (active)
GI50 (SNB-75): 0.679 µM (active)
GI50 (SR): 0.153 µM (active)
GI50 (SW-620): 0.6 µM (active)
GI50 (T47D): 0.294 µM (active)
GI50 (TK-10): 0.638 µM (active)
GI50 (U-251): 0.324 µM (active)
GI50 (UACC-257): 0.507 µM (active)
GI50 (UACC-62): 0.292 µM (active)
GI50 (UO-31): 0.312 µM (active)

O/N=C(/C(Cl)=C(Cl)Cl)C(Cl)Cl
GI50 (786-0): 18.7 µM (inactive)
GI50 (A498): > 100 µM (inactive)
GI50 (A549): > 100 µM (inactive)
GI50 (ACHN): 17.9 µM (inactive)
GI50 (BT-549): 21.3 µM (inactive)
GI50 (CAKI-1): 33.6 µM (inactive)
GI50 (CCRF-CEM): 12.4 µM (inactive)
GI50 (COLO 205): 20.7 µM (inactive)
GI50 (DU-145): 29.6 µM (inactive)
GI50 (EKVX): 42.5 µM (inactive)
GI50 (HCC 2998): 31.4 µM (inactive)
GI50 (HCT-116): 17.9 µM (inactive)
GI50 (HCT-15): 17.2 µM
GI50 (HL-60): 8.28 µM (inactive)
GI50 (HOP-62): 23.3 µM (inactive)
GI50 (HT-29): 16.7 µM (inactive)
GI50 (Hs-578T): 19.1 µM (inactive)
GI50 (IGROV-1): 20.4 µM (inactive)
GI50 (K562): 13.3 µM (inactive)
GI50 (KM12): 22.4 µM (inactive)
GI50 (LOX IMVI): 17.2 µM (inactive)
GI50 (M14): 20.2 µM (inactive)
GI50 (MCF7): 25.6 µM (inactive)
GI50 (MDA-MB-231): 19.2 µM (inactive)
GI50 (MDA-MB-435): 18.2 µM (inactive)
GI50 (MDA-N): 17 µM (inactive)
GI50 (MOLT-4): 15.9 µM (inactive)
GI50 (Malme-3M): 28.8 µM (inactive)
GI50 (NCI-H226): 31 µM (inactive)
GI50 (NCI-H23): 14.9 µM (inactive)
GI50 (NCI-H460): 37.2 µM (inactive)
GI50 (NCI/ADR-RES): 32.2 µM (inactive)
GI50 (OVCAR-3): 19.6 µM (inactive)
GI50 (OVCAR-4): 16.7 µM (inactive)
GI50 (OVCAR-5): 25.9 µM (inactive)
GI50 (OVCAR-8): 23.9 µM (inactive)
GI50 (PC-3): 17.3 µM (inactive)
GI50 (RPMI-8226): 14.2 µM (inactive)
GI50 (RXF 393): 16.3 µM (inactive)
GI50 (SF-268): 17 µM (inactive)
GI50 (SF-295): 19.2 µM (inactive)
GI50 (SF-539): 21.5 µM (inactive)
GI50 (SK-MEL-28): 15.2 µM (inactive)
GI50 (SK-MEL-5): 19.5 µM (inactive)
GI50 (SK-OV-3): 28.8 µM (inactive)
GI50 (SN12C): 18.1 µM (inactive)
GI50 (SNB-19): 31.5 µM (inactive)
GI50 (SNB-75): 19 µM (inactive)
GI50 (SR): 10.8 µM (inactive)
GI50 (SW-620): 20.4 µM (inactive)
GI50 (TK-10): 18.3 µM (inactive)
GI50 (U-251): 19.5 µM (inactive)
GI50 (UACC-257): 19.6 µM (inactive)
GI50 (UACC-62): 24.7 µM (inactive)
GI50 (UO-31): 20.9 µM (inactive)
